This note sets out measurements from PubChem BioAssay (NCI).

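Five concentrations, 48 hours, 96-well plates. Definition used: TGI = concentration required for complete inhibition of growth.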

Some test systems named below: ACHN renal; COLO 205 colon; EKVX NSCLC; K-562 leukemia; KM12 colon; MCF7 breast; MDA-MB-435; NCI-H226 lung; NCI-H522 lung; OVCAR-3 ovarian; OVCAR-4 ovarian; SF-539 CNS; SNB-19 CNS; T-47D breast; UO-31 renal.
What all share (assay): NCI anticancer screen, dose series, 48 h

As to `CCC12CN(C(=O)OC)C3C(Br)C1CCC(=O)C32` (stereo not given), the TGI in the test with ACHN renal, with COLO 205 colon, in the test with EKVX NSCLC, with K-562 leukemia, in the test with KM12 colon and in the test with MCF7 breast was above 100 µM throughout. The TGI in the test with MDA-MB-435, in the test on NCI-H226 lung, with NCI-H522 lung, in the test with OVCAR-3 ovarian, in the test on OVCAR-4 ovarian and with SF-539 CNS was above 100 µM each time. Further, the TGI with SNB-19 CNS, in the test with T-47D breast and in the test with UO-31 renal was above 100 µM each time.

With `COC(=O)C1=C(C(=O)OC)N(c2ccncc2)C(c2ccco2)=CC1c1ccccc1[N+](=O)[O-]` (stereo not given), the TGI with ACHN renal is 3.47 µM; with COLO 205 colon, 10.2 µM; in the test with EKVX NSCLC, 15.9 µM; in the test with K-562 leukemia, above 100 µM; with KM12 colon, 3.38 µM; in the test on MCF7 breast, 7.06 µM. The TGI with MDA-MB-435 is above 39.8 µM; in the test with NCI-H226 lung, 30.3 µM; with NCI-H522 lung, 5.06 µM; in the test with OVCAR-3 ovarian, above 28.4 µM; with OVCAR-4 ovarian, 15.7 µM; with SF-539 CNS it was 3.6 µM. The figures for the TGI in the test on SNB-19 CNS, with T-47D breast and with UO-31 renal were 41 µM, 12.9 µM and 8.21 µM, respectively.

Turning to `N#CC(C#N)=C(N)/C(C#N)=C/c1ccc(O)c(O)c1`, the TGI with ACHN renal, in the test on COLO 205 colon, in the test with EKVX NSCLC, in the test with K-562 leukemia, in the test with KM12 colon and with MCF7 breast was above 100 µM in each case. Further, the TGI with MDA-MB-435, with NCI-H226 lung, in the test with NCI-H522 lung, in the test with OVCAR-3 ovarian, in the test on OVCAR-4 ovarian and with SF-539 CNS was above 100 µM each time. The TGI with SNB-19 CNS, in the test on T-47D breast and in the test with UO-31 renal was above 100 µM throughout.
